Experiments:
Assay type in all cases: cell-based
[1] = tested on: Chrysosporium keratinophilum; assay: Agar plate disc-diffusion, antifungal inhibition zone; details: Sabouraud's dextrose agar, 72 h
Description: (§1) The agar plate disc-diffusion method was applied. […] The discs were then placed onto the surface of agar plates (nutrient agar for bacteria and Sabouraud's dextrose agar for fungi) seeded with the test organism. Each plate contained 15 mL of the agar medium, previously seeded with 0.2 mL of the broth culture of each organism pregrown for 18 h. The plates were incubated at 37° C. for 48 h, and 72 h for fungi. The inhibition zones was measured in mm. Discs impregnated with DMSO were used as a control, and its inhibition zone was subtracted from the tested compound actual inhibition zone.

Aspergillus flavus = assay: as above; details: Sabouraud's dextrose agar, 72 h
Description: as §1

Bacillus cereus = assay: Agar plate disc-diffusion, antibacterial inhibition zone; details: nutrient agar, 37° C., 48 h
Description: as §1

Pseudomonas aeruginosa = assay: as above; details: nutrient agar, 37° C., 48 h
Description: as §1

Staphylococcus aureus = assay: as above; details: nutrient agar, 37° C., 48 h
Description: as §1

Escherichia coli = assay: as above; details: nutrient agar, 37° C., 48 h
Description: as §1

[2] = B = concentration of comp. = 30,000 μL
[3] = C = concentration of comp. = 50,000 μL
[4] = A = concentration of comp. = 10,000 μL

Structure (SMILES) | inhibition zone, Chrysosporium keratinophilum [1, 2] [mm] | inhibition zone, Chrysosporium keratinophilum [1, 3] [mm] | inhibition zone, Aspergillus flavus (Aspergillus flavus; [4]) [mm] | inhibition zone, Aspergillus flavus (Aspergillus flavus; [2]) [mm] | inhibition zone, Aspergillus flavus (Aspergillus flavus; [3]) [mm] | inhibition zone, Bacillus Cereus (Bacillus cereus; [2]) [mm] | inhibition zone, Chrysosporium keratinophilum [1, 4] [mm] | inhibition zone, Pseudomonas aeruginosa (Pseudomonas aeruginosa; [4]) [mm] | inhibition zone, Pseudomonas aeruginosa (Pseudomonas aeruginosa; [2]) [mm] | inhibition zone, Pseudomonas aeruginosa (Pseudomonas aeruginosa; [3]) [mm] | inhibition zone, Bacillus Cereus (Bacillus cereus; [4]) [mm] | inhibition zone, Bacillus Cereus (Bacillus cereus; [3]) [mm] | inhibition zone, Staphylococcus aureus (Staphylococcus aureus; [4]) [mm] | inhibition zone, Staphylococcus aureus (Staphylococcus aureus; [2]) [mm] | inhibition zone, Staphylococcus aureus (Staphylococcus aureus; [3]) [mm] | inhibition zone, Escherichia coli (Escherichia coli; [4]) [mm] | inhibition zone, Escherichia coli (Escherichia coli; [2]) [mm] | inhibition zone, Escherichia coli (Escherichia coli; [3]) [mm]
O=C(O)c1cn(C2CC2)c2cc(N3CCNCC3)c(F)cc2c1=O [Cip., reference compound] | 33 | 55 | 28 | 31 | 43 | 31 |  |  |  |  |  |  |  |  |  |  |  | 
COc1ccc(-c2nc(-c3ccc(Br)cc3)c(-c3ccc(Br)cc3)n2CCCCCC(=O)O)cc1 [V, 6-(4,5-bis(4-bromophenyl)-2-(4-methoxyphenyl)-1H-imidazol-1-yl)hexanoic acid] | 27 | 47 | 25 | 28 | 35 | 20 | 25 | 26 | 28 | 40 | 18 | 35 | 21 | 28 | 38 | 27 | 35 | 49
